From ChEMBL document CHEMBL4842374, “Natural inspired piperine-based sulfonamides and carboxylic acids as carbonic anhydrase inhibitors: Design, synthesis and biological evaluation” (Eur J Med Chem, 2021)

How the values were obtained:
Carbonic anhydrase 9 = Carbonic anhydrase 9 (Homo sapiens, UniProt Q16790)
Description: Inhibition of human CA9 measured after 15 mins by stopped flow carbon dioxide anhydrase assay

Carbonic anhydrase 1 = Carbonic anhydrase 1 (Homo sapiens, UniProt P00915); assay: Inhibition of human CA1 measured after 15 mins by stopped flow carbon dioxide anhydrase assay
MCF7 [1] = assay: Induction of apoptosis in human MCF7 cells assessed as early apoptotic cells measured by AnnexinV/FITC staining based flow cytometry assay ( Rvb = 0.52%); assay type: functional
MCF7 [2] = assay: cells; assay type: functional, cell-based; conditions: Homo sapiens, MCF7, 48 h
Description: Antiproliferative activity against human MCF7 cells assessed as inhibition of cell proliferation measured after 48 hrs by MTT assay

MCF7 [3] = assay: Induction of apoptosis in human MCF7 cells assessed as necrotic cells measured by AnnexinV/FITC staining based flow cytometry assay ( Rvb = 0.74%); assay type: functional
MCF7 [4] = assay: Induction of apoptosis in human MCF7 cells assessed as late apoptotic cells measured by AnnexinV/FITC staining based flow cytometry assay ( Rvb = 0.17%); assay type: functional
Carbonic anhydrase 12 = Carbonic anhydrase 12 (Homo sapiens, UniProt O43570); assay: Inhibition of human CA12 measured after 15 mins by stopped flow carbon dioxide anhydrase assay
Chain of Carbonic anhydrase 12 (O43570 whole entry): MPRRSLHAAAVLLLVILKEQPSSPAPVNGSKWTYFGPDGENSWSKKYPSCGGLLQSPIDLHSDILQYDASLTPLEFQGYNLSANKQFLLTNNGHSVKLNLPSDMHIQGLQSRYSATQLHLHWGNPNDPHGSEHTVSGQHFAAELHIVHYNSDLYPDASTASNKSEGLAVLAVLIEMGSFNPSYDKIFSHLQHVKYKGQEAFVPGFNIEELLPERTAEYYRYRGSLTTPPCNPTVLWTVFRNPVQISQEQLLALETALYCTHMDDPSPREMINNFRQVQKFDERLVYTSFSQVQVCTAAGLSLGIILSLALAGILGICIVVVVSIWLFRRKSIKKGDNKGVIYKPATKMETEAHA

Carbonic anhydrase 2 = Carbonic anhydrase 2 (Homo sapiens, UniProt P00918); assay: Inhibition of human CA2 measured after 15 mins by stopped flow carbon dioxide anhydrase assay

Chain of Carbonic anhydrase 1 (P00915 whole entry): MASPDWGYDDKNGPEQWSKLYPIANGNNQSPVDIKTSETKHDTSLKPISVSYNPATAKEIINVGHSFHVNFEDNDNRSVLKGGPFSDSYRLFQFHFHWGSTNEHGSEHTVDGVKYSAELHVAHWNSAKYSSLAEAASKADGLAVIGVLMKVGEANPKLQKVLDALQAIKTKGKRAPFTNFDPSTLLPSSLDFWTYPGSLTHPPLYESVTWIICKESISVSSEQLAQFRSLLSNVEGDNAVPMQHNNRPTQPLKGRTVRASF

Row | Compound | Ki (Carbonic anhydrase 9) [µM] | Ki (Carbonic anhydrase 1) [µM] | Ki (Carbonic anhydrase 12) [µM] | Ki (Carbonic anhydrase 2) [µM] | also measured
1 | NS(=O)(=O)c1ccccc1NC(=O)N/C=C/C=C/c1ccc2c(c1)OCO2 | 0.739 | – | – | – | –
2 | O=C(N/C=C/C=C/c1ccc2c(c1)OCO2)Nc1ccccc1C(=O)O | 30.3 | > 100 | – | – | –
3 | NS(=O)(=O)c1ccc(NC(=O)N/C=C/C=C/c2ccc3c(c2)OCO3)cc1 | 0.0387 | – | – | – | Activity (MCF7 [1]): 1.91%; IC50 (MCF7 [2]): 2.17 µM; Activity (MCF7 [3]): 14.19%; Activity (MCF7 [4]): 23.14%
4 | NS(=O)(=O)c1ccc(CCNC(=O)N/C=C/C=C/c2ccc3c(c2)OCO3)cc1 | 0.0682 | – | – | – | –
5 | O=C(N/C=C/C=C/c1ccc2c(c1)OCO2)Nc1ccc(S(=O)(=O)Nc2nccs2)cc1 | > 100 | > 100 | > 100 | > 100 | –
6 | Cc1ccc(NC(=O)N/C=C/C=C/c2ccc3c(c2)OCO3)cc1S(N)(=O)=O | 0.903 | – | – | – | –
7 | O=C(N/C=C/C=C/c1ccc2c(c1)OCO2)Nc1ccc(C(=O)O)cc1 | 16.1 | > 100 | – | – | –
8 | NS(=O)(=O)c1cccc(NC(=O)N/C=C/C=C/c2ccc3c(c2)OCO3)c1 | 0.319 | – | – | – | –
9 | COC(=O)c1cccc(NC(=O)N/C=C/C=C/c2ccc3c(c2)OCO3)c1 | > 100 | > 100 | > 100 | > 100 | –
10 | COC(=O)c1ccc(NC(=O)N/C=C/C=C/c2ccc3c(c2)OCO3)cc1 | > 100 | > 100 | > 100 | > 100 | –
11 | CC(=O)c1ccc(NC(=O)N/C=C/C=C/c2ccc3c(c2)OCO3)cc1 | > 100 | > 100 | > 100 | > 100 | –
12 | O=C(N/C=C/C=C/c1ccc2c(c1)OCO2)Nc1cccc(C(=O)O)c1 | 24.8 | > 100 | – | – | –
